{"source": "patent US20170119738A1", "about": "“PHARMACEUTICAL COMPOSITIONS FOR RIZATRIPTAN” (Dr. Reddy's Laboratories, Ltd., priority 2015, published 2017)", "origin": "cited, not measured here", "key": {"[1]": {"system": "human cloned 5-HT1B/1D receptors"}}, "data": [{"compound": "CN(C)CCc1c[nH]c2ccc(Cn3cncn3)cc12", "note": "[Rizatriptan, N,N-dimethyl-2-[5-(1H-1,2,4-triazol-1-ylmethyl)-1H-indol-3-yl]ethanamine]", "values": [{"measurement": "binding affinity", "setting": "[1]", "result": "high affinity"}, {"measurement": "pain-free response at 2 hours, symptom-free response at 2 hours, 24 hour sustained pain-free response", "setting": "migraine headache; oral 10 mg vs oral sumatriptan, naratriptan, zolmitriptan (Adelman et al. 2001)", "result": "more effective"}, {"measurement": "effectiveness for pain relief (PR) and pain freedom (PF)", "setting": "migraine headache; oral 10 mg vs other oral triptans (Ng-Mak et al. 2007)", "result": "significantly more effective than other oral triptans"}]}]}
